{"source": "patent US7816074B2", "about": "“α4 β2 δGABA-A receptors as a strategy for PMS and alcoholism” (priority 2003, dated 2010)", "key": {"[1]": {"system": "GABAR of acutely dissociated CA1 hippocampal pyramidal neurons", "test": "Whole cell patch clamp, lorazepam modulation and decay of GABA-gated current after steroid/ethanol treatment", "type": "cell-based, rat", "protocol": "(§1) Animals were administered steroids using one of two protocols: (i) For the 48 hour steroid administration protocol, animals were injected with 10 mg/kg 3α, 5β THP in oil, i.p., on a daily basis for three days and sacrificed 1-2 hour following the final injection. Controls were injected with oil vehicle. […] At this time, the capsule was removed and the animals were injected with 17 β estradiol (2 μgs/animal) in order to reset their cycle. Animals were sacrificed 24 hours later. […] In all cases, implantation and removal of capsules were performed under halothane anesthesia. […] Therefore, this study employed the 5β isomer of the steroid.\n(§2) In some groups of animals, either ethanol (0.5 g/kg in saline) or saline vehicle was administered i.p. (3×, every 40 minutes) for the final 2 hours of the respective steroid administration or withdrawal paradigm. The use of multiple injections of low doses of ethanol would approximate ethanol consumption in the human more closely than would a single injection. For the 48 hour steroid administration paradigm, animals received their first ethanol injection immediately after the steroid injection, and subsequent injections at 40 minute intervals. In all cases, animals were sacrificed 40 minutes after the final ethanol injection (2 hours after the first ethanol injection and final steroid injection). All animal protocols were carried out with the approval of the Institutional Animal Care and Use Committee.\nCurrents were recorded using an Axopatch 1D amplifier (Axon Instruments) filtered at 2 kHz (four-pole Bessel filter) and detected at 500 Hz (pClamp 5.1)."}, "GABAR α4 subunit": {"system": "GABAR α4 subunit", "test": "Western blot of α4 subunit in hippocampus after steroid and ethanol administration", "type": "in vivo, rat", "settings": "48 hours of exposure to 3α,5β-THP (10 mg/kg i.p.), saline", "protocol": "as §1, §2\nHippocampi removed from steroid or vehicle-treated animals were homogenized, and membranes prepared as previously described (65). Following electrophoresis on 8% SDS polyacrylamide gels, membranes were transferred to a nitrocellulose membrane (Bio-Rad, Hercules, Calif.). α4 subunit levels were detected by evaluating the band density at 67 kDa after probing with a polyclonal antibody (64). Membranes were incubated for 1-2 hours at room temperature with a 1:5000 dilution of horseradish peroxidase-conjugated donkey anti-rabbit IgG (Amersham, Arlington Heights, Ill.), and visualized with enhanced chemiluminescence with varying concentrations of protein in the linear range. Immunoreactive band densities were quantified using a CCD camera (UMAX Scanner) and one-Dscan software, which uses multiple Gaussian fits to achieve accurate band density profiles."}, "α4β2δ GABAA receptors [2]": {"molecular_target": "T1, α4β2δ GABAA receptors (UniProt O14764+P63138+Q9D6F4)", "T1 construct": "expressed in transfected cells", "T1 sequence (Q9D6F4 36-552)": "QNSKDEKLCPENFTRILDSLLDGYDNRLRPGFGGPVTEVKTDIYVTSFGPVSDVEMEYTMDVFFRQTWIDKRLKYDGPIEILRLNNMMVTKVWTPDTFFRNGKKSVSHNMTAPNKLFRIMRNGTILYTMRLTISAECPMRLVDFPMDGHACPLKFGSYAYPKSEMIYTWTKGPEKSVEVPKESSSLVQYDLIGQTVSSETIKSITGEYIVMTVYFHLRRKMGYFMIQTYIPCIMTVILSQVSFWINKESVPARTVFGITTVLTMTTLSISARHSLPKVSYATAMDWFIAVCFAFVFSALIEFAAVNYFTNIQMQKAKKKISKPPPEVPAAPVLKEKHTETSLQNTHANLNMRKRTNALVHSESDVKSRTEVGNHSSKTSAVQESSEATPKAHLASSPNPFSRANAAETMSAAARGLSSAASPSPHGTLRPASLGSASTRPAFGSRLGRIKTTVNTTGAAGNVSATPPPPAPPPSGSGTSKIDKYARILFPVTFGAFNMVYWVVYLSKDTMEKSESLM", "T1 sequence (P63138 25-474 limits assumed)": "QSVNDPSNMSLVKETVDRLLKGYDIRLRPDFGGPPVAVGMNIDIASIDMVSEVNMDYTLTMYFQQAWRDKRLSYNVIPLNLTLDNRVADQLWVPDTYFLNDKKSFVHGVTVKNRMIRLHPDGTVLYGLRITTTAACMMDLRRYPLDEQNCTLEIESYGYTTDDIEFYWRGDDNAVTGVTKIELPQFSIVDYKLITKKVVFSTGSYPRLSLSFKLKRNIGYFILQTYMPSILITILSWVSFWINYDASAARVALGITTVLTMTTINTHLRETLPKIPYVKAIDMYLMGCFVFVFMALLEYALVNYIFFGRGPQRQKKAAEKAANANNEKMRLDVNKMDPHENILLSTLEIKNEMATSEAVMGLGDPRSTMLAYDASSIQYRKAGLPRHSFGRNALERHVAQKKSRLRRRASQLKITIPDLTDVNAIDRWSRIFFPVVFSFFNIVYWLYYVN", "T1 sequence (O14764 17-452 limits assumed)": "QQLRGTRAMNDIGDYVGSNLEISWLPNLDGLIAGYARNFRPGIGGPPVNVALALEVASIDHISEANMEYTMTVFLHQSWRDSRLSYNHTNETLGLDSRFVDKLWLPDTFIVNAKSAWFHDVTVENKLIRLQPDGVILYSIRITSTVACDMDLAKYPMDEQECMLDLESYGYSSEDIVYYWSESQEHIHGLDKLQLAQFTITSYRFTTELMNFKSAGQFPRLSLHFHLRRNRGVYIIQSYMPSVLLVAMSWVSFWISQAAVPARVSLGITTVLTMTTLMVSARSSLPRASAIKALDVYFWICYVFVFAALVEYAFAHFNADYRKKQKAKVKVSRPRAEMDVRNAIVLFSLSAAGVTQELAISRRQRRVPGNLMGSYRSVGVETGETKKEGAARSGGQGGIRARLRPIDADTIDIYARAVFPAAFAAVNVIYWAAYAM", "test": "Two-electrode voltage-clamp of recombinant GABAA receptors in oocytes", "type": "cell-based"}, "[3]": {"system": "GABAA receptors of acutely isolated CA1 hippocampal pyramidal cells", "test": "Whole cell patch clamp, ethanol or THIP effect on GABA-gated current", "type": "cell-based, rat", "settings": "after progesterone withdrawal", "protocol": "Pyramidal neurons were acutely dissociated from CA1 hippocampus and GABA-gated Cl^− currents analyzed using whole cell patch clamp procedures as previously described (67). Briefly, tissue was digested at 32° C. for 50-60 minutes under 100% O2 in PIPES-buffered saline containing (in mM): NaCl 120, KCl 5, CaCl2 1, MgCl2 1, D-glucose 25, PIPES 20 and trypsin (type XI, sigma) 0.8 mg/ml, pH 7.0. After 1 hour of enzyme-free incubation at room temperature, tissue was dissociated by trituration in 1 ml of 20 mM HEPES-buffered DMEM which was replaced by recording medium after transfer to the recording chamber. GABA-gated currents were recorded at room temperature (20-25° C.) at a holding potential of −50 mV in a bath containing (in mM): NaCl 120, CsCl 5, CaCl2 2, MgCl2 1, TEA Cl 15, 4-aminopyridine 5, HEPES 10 and glucose 25, pH 7.4, 320 mOsm/kg H2O. The pipette solution contained (in mM): N-methyl-D-glucamine chloride 120, Cs4BAPTA 5 and Mg-ATP 5. The ATP regeneration system Tris phosphocreatine (20 mM) and creatine kinase were added to minimize GABA rundown. All drugs were obtained from Sigma Chemical Co, (St. Louis, Mo.), except for BAPTA (Calbiochem, San, Diego, Calif.).\nPeak currents were calculated for all drug concentrations as relative to the current gated by 10 μM GABA alone using the equation: ([peak current: GABA+ETOH]−[peak current: GABA alone])/[peak current: GABA alone]. Currents were recorded using an Axopatch 1D amplifier (Axon Instruments) filtered at 2 kHz (four-pole Bessel filter) and detected at 500 Hz (pClamp 5.1).\nFollowing progesterone withdrawal or control conditions, pyramidal cells were acutely isolated from CA1 hippocampus as described (65,64). GABA-gated Cl^− currents were recorded using whole cell patch clamp techniques at a holding potential of −50 mV."}, "female Long Evans rats": {"system": "female Long Evans rats", "test": "Acoustic startle response (ASR)", "type": "in vivo, rat", "settings": "THIP 3 mg/kg i.p.", "protocol": "Animals were tested in a stabilimeter device (SR-Lab Startle Response System, San Diego Instruments, Inc., San Diego, Calif.) that permits vertical movement of a Plexiglas platform contained within a lit, well-ventilated sound-attenuating chamber (26). The amplitude of movement is detected by a piezoelectric device with a voltage output proportional to platform displacement. The analog output of the accelerometer is then amplified and digitized before computer analysis. Five minutes after i.p. administration of 10% ethanol (0.05-1.6 g/kg) or saline vehicle (1.5 ml volume) or 25 minutes after 4,5,6,7-tetrahydroisoxazolo[5,4-c]pyridin-3-ol injection (3 mg/kg, i.p.), animals were placed in the chamber for a 5 minutes acclimation period. […] Four acoustic stimuli (116 dB, 40 ms duration) were then presented at random intervals once every 10-15 seconds via a white-noise generator through speakers positioned on either side of the cage. […] For each acoustic stimulus, the amplitude and integrated response (amplitude and duration) were determined and normalized to the weight of the animal. Values for the integrated response after administration of each dose of ethanol or 4,5,6,7-tetrahydroisoxazolo[5,4-c]pyridin-3-ol were averaged and expressed as a fraction of the saline control average for the indicated treatment (progesterone withdrawal versus control) group in order to minimize variability between groups. […] It is also routinely used to assess behavioral excitability after withdrawal from BDZs and ethanol (73).\nAnimals were tested in a stabilimeter device (SR-Lab Startle Response System, San Diego Instruments, Inc.) that permitted vertical movement of a Plexiglas cage contained within a lit, well-ventilated, sound-attenuating chamber. The amplitude of movement was detected by a piezoelectric device with a voltage output proportional to cage displacement. The analog output of the accelerometer was amplified and digitized before computer analysis (15). Five minutes following intraperitoneal administration of alcohol (0.2 or 0.4 g/kg) or saline vehicle (1.5 ml volume), animals were placed in the chamber for 5 a minute acclimation period. Five acoustic stimuli (116 dB, 40 msec duration) were then presented once every 10-15 seconds via a white-noise generator through speakers positioned on either side of the cage. For each acoustic stimulus, the integrated response (amplitude and duration) was averaged across a 100 msec post-stimulus time period and the response latency determined. Both values were normalized to the weight of the animal. Values for the integrated response for the first noise stimulus following administration of each dose of alcohol were averaged and expressed as a fraction of the saline control average for the indicated treatment (P Wd versus control) group. […] It is routinely used to assess behavioral excitability following withdrawal from benzodiazepiness (48) and alcohol (73), and is known to be modified by GABA modulators, such as diazepam (11), and by local infusion of excitatory compounds into dorsal hippocampus (85)."}, "α4β2δ GABAA receptors [4]": {"molecular_target": "T1, α4β2δ GABAA receptors", "settings": "α4βδ receptors (ref. 6); cited from earlier work"}, "[5]": {"molecular_target": "T2, α1β2δ receptors (oocytes injected with α1+β2+δ) (Rattus norvegicus, UniProt P62813+P63138)", "T2 construct": "expressed in transfected cells; host or cells: oocytes injected with cRNA (Xenopus laevis is named only)", "T2 sequence (P62813 28-455)": "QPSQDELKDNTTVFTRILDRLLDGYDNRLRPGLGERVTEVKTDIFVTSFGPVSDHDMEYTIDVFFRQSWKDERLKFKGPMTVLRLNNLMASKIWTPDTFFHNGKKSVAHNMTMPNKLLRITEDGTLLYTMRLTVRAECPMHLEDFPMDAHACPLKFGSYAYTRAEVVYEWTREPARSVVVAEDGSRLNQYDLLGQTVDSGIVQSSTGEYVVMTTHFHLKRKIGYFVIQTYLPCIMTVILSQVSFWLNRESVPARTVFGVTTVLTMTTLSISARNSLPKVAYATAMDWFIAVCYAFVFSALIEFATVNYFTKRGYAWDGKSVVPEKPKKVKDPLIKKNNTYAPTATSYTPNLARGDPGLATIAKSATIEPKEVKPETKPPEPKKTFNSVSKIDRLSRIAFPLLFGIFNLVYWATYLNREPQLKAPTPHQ", "T2 sequence (P63138 26-474)": "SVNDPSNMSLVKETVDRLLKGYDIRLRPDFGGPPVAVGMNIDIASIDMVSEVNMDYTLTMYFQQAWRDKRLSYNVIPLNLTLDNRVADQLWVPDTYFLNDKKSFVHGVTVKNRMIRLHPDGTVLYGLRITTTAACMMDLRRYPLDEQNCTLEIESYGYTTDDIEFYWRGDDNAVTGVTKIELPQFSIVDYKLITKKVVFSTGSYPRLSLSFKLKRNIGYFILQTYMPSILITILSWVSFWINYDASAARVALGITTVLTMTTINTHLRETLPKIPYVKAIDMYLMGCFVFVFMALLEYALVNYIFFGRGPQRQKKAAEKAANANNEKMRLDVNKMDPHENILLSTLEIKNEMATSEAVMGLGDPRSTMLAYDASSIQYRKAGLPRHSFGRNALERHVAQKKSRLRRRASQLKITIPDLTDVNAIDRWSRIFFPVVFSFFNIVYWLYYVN", "type": "cell-based, human δ, expressed in Xenopus laevis oocytes", "settings": "1 μM zinc; the other 15 oocytes injected with α1+β2+δ", "excerpt": "(§3) Plasmids with inserts encoding GABAA receptor subunit sequence for rat α1 (62), rat β2 (83), rat α2 (62), rat α5 (62), mouse α4 (37), mouse β3 (82), rat β1 (83), rat γ2S (63), human δ (12), and human ε (11) were produced by subcloning each separately into an appropriate cloning vehicle such as PCDM8, pCDNA3.1 or pGHEMHE vectors (Invitrogen, Carlsbad Calif.) using a T7 promoter and standard subcloning techniques (59). Plasmids were linearized with an appropriate restriction enzyme at a site 3′ to the insert and cRNAs were synthesized using T3 or T7 polymerase (mMessage mMachine, Ambion, Tex.). The size of the cRNA was verified and RNA was quantified by ethidium bromide staining after electrophoresis on 1% agarose gels.\n(§4) The preparation, injection, and maintenance of oocytes were carried out as described previously (78). Oocytes were injected with receptor subunit cRNAs (2 to 20 ng) in the following ratios: α1:β1:γ2S, α1:β2:γ2S and α1:β1:ε1, 1:1:1; α2:β1:γ2S, α5:β1:γ2S, α4:β1:γ2S, and α4:β2:γ2S, 10:1:1; α4:β1:δ, α4:β2:δ, α4:β3δ, 10:1:10; α1:β2:δ, 1:1:10 or 1:0.5:3; α1:β1:δ, 1:1:10 or 1:0.5:3; α2:β1:δ and α2:β2:δ, 1:0.5:3; α1:β1, α1:β2, α2:β1, α2:β2, β2:γ2S and α4δ, 1:1, α4:β1, α4:β2, α4:β3, 10:1, β2δ, 1:10.\n(§5) Voltage-clamp recording was carried out 1 to 3 days after injection of cRNAs. Electrodes were filled with 3 M KCl and had resistances of 0.4-4 MΩ. Oocytes were positioned in a small Perspex chamber and continuously superfused with a saline solution (100 mM NaCl, 2 mM KCl, 1.8 mM CaCl2, 10 mM HEPES, pH 7.5). Agonists and modulators were both applied in the same saline solution. Oocytes were voltage-clamped at −70 mV and macroscopic currents were recorded with a two-electrode voltage-clamp using a Warner Instruments OC-725 amplifier as described previously (79). Currents were recorded on a chart recorder or by using Axograph on a Macintosh computer.\n(§6) Other subunits (α1, α2, β1, β2) were tested for co-expression with the δ subunit. […]"}, "[6]": {"molecular_target": "T3, α1β2δ receptors (oocytes injected with α1+β2+δ) (UniProt O14764+P62813+P63138)", "T3 construct": "expressed in transfected cells; host or cells: oocytes injected with cRNA (Xenopus laevis is named only)", "T3 sequence (P62813 28-455)": "as the sequence (P62813 28-455) above", "T3 sequence (P63138 26-474)": "as the sequence (P63138 26-474) above", "T3 sequence (O14764 25-452)": "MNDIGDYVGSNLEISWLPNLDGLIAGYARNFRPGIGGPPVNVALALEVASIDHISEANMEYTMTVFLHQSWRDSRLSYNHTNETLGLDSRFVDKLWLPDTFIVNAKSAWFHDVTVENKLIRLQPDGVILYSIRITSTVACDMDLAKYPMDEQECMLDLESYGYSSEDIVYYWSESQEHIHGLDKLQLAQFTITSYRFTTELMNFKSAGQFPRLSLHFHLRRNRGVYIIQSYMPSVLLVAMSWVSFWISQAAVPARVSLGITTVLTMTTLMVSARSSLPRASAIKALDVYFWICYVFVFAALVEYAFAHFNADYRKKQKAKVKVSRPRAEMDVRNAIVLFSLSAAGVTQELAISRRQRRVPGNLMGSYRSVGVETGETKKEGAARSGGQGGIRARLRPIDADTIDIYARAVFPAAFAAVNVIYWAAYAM", "type": "cell-based, rat α1, rat β2, human δ, expressed in Xenopus laevis oocytes", "settings": "1 μM zinc; 7 of 22 oocytes injected with α1+β2+δ", "excerpt": "as §3, §4, §5, §6"}, "α1β2 receptors": {"molecular_target": "T4, α1β2 receptors (Rattus norvegicus, UniProt P62813+P63138)", "T4 construct": "expressed in transfected cells; host or cells: oocytes injected with cRNA (Xenopus laevis is named only)", "T4 sequence (P62813 28-455)": "as the sequence (P62813 28-455) above", "T4 sequence (P63138 25-474 limits assumed)": "as the sequence (P63138 25-474 limits assumed) above", "test": "Two-electrode voltage-clamp of recombinant GABAA receptors in oocytes", "type": "cell-based, expressed in Xenopus laevis oocytes", "settings": "1 μM zinc; n=5", "excerpt": "as §3\nThe preparation, injection, and maintenance of oocytes were carried out as described previously (78). […]\nVoltage-clamp recording was carried out 1 to 3 days after injection of cRNAs. […] Oocytes were voltage-clamped at −70 mV and macroscopic currents were recorded with a two-electrode voltage-clamp using a Warner Instruments OC-725 amplifier as described previously (79). Currents were recorded on a chart recorder or by using Axograph on a Macintosh computer. […]"}}, "data": [{"smiles": "O=C1Nc2ccc(Cl)cc2C(c2ccccc2Cl)=NC1O", "note": "(stereo not shown) [LZM, lorazepam]", "values": [{"measurement": "maximal potentiation of GABA-gated current", "setting": "[1]; 10 μM LZM, 48 h 3α,5β-THP with 2 h ethanol", "result": 90, "unit": "%"}, {"measurement": "potentiation of GABA-gated current", "setting": "[1]; 10 μM LZM, 48 h 3α,5β-THP, saline-treated rats", "result": "12-15%"}, {"measurement": "LZM-induced potentiation of GABA-gated current", "setting": "[1]; 2 hours of ethanol after progesterone withdrawal", "result": "robust"}]}, {"smiles": "CC(=O)[C@H]1CC[C@H]2[C@@H]3CC[C@@H]4C[C@H](O)CC[C@]4(C)[C@H]3CC[C@]12C", "note": "[3α, 5β-THP]", "values": [{"measurement": "increase of α4 expression compared to control", "setting": "GABAR α4 subunit", "result": "threefold"}]}, {"smiles": "Oc1noc2c1CCNC2", "note": "[THIP, 4,5,6,7-tetrahydroisoxazolo[5,4-c]pyridin-3-ol]", "values": [{"measurement": "ratio of currents induced by THIP:GABA", "setting": "α4β2δ GABAA receptors [2]; oocytes injected with α4+β2+δ subunits", "result": 1.24}, {"measurement": "efficacy of THIP relative to GABA (maximum current)", "setting": "[3]", "result": "increased efficacy"}, {"measurement": "attenuation of ASR", "setting": "female Long Evans rats; P withdrawn animals", "result": 70, "unit": "%"}, {"measurement": "increase of ASR", "setting": "female Long Evans rats; control animals", "result": "about 40%"}, {"measurement": "maximum current compared to that gated by GABA at α4βδ", "setting": "α4β2δ GABAA receptors [4]", "result": "greater maximum current"}]}, {"smiles": "[La]", "note": "[lanthanum]", "values": [{"measurement": "inhibition of currents at α4β2δ receptors", "setting": "α4β2δ GABAA receptors [2]; La3+ 300 μM", "result": 80, "unit": "%"}]}, {"smiles": "[Zn]", "note": "[zinc]", "values": [{"measurement": "zinc inhibition of GABA currents", "setting": "[5]", "result": "66.4±6.4", "unit": "%"}, {"measurement": "zinc inhibition of GABA currents", "setting": "[6]", "result": "49.1±6.4", "unit": "%"}, {"measurement": "zinc inhibition of GABA currents", "setting": "α1β2 receptors", "result": "72.4±6.9", "unit": "%"}]}]}
